From patent US10308926B2, “Stablized EZH2 peptides” (DANA-FARBER CANCER INSTITUTE, INC., priority 2013, dated 2019)
Each block holds one compound with its values, some of them ahead of it. Bridges are numbered along the chain shown (N, C = ends). Where no end group is shown, it is not given here. [ ]: non-standard residue; d: D form. S5 = C=CCCC[C@](C)(N)C(=O)O; Nle = CCCC[C@H](N)C(=O)O

Columns and labels:
MLL-AF9 = test: Viability assay on EZH2-dependent cell line MLL-AF9; type: cell-based, mouse
Text: (§1) To compare the functional and mechanism-based cellular activities of SAH-EZH2 and GSK126, a small molecule inhibitor of EZH2 enzymatic activity (McCabe et al. Nature, 492: 108-112, 2012), we conducted viability assays on the EZH2-dependent cell line MLL-AF9 and the EZH2-independent (non-leukemic) cell line 32D. […] We next compared the effects of SAH-EZH2 and GSK126 on lineage specific surface marker expression in MLL-AF9 cells. […] Given the distinct mechanisms of action of SAH-EZH2 and GSK126, we explored whether co-administration of the two compounds would enhance the anti-leukemic effects. […] Thus, SAH-EZH2 manifests a unique mechanism of action by targeting EED, dissociating the EZH2/EED complex, and thereby reduces EZH2 protein levels. As a result, the H3K27Me3 mark is reduced over time and PRC2 transcriptional effects are inhibited, leading to anti-proliferative and induced-differentiation effects on EZH2-dependent leukemia cells.

CD133 = CD133 expression in MLL-AF9 cells; type: cell-based, mouse; settings: MLL-AF9, 8 days of treatment
32D = test: Viability assay on EZH2-independent cell line 32D; type: cell-based; settings: EZH2-independent (non-leukemic)
Text: as §1

Ace1, Adam8 and Fcer1a = test: Real time qPCR of macrophage/monocyte lineage-specific markers in MLL-AF9 cells; type: cell-based, mouse; settings: MLL-AF9, 8 days
MLL-AF9 leukemia cells = test: Apoptosis by Annexin V/7-AAD flow cytometry; type: cell-based, mouse; settings: positive control, 2 μM, 48 h
Protocol: Cell Proliferation, Apoptosis, and Cell Cycle Analyses: To monitor the effect of SAH-EZH2 peptides on cell proliferation, MLL-AF9 cells were seeded in 48 well plates at densities of 2×10^5 cells per well in 150 μl of AF9 media and treated with SAH-EZH2 peptides (10 μM) twice daily. Cells were counted every other day using a hematocytometer. To evaluate apoptosis induction, the cells were stained with Annexin V5-PE and 7-AAD after 8 or 16 days of treatment with SAH-EZH2 peptides. Camptothecin (Biovision) was used as a positive control (2 μM, 48 h). Cells were analyzed using a BD FACScaliber and data was processed using Flowjo software. For cell cycle analysis, cells were stained with propidium iodide (BD Biosciences) after 4 or 8 days of treatment with SAH-EZH2 peptides. Cells were analyzed using a BD FACSCalibur and data processed using Modfit software.

HA-EED = target: T1, HA-EED (Homo sapiens, UniProt O75530); test: Anti-FITC pull down of HA-EED by FITC-SAH-EZH2 peptides; type: binding; settings: HA-EED 40 nM
T1 construct: made in house; host or cells: Sf21 insect cells
Protocol: (§2) [formula] y: Fluorescence polarization, X: Receptor concentration, L: Ligand concentration AF: Minimum value of y, AB: Maximum value of y For anti-FITC pull down-based binding assays, HA-EED was produced in Sf21 cells as described in Shen et al.^29,46. FITC-SAH-EZH2 peptides (final concentration, 50, 10, and 2 nM) were mixed with 2 μl, 0.5 μl and 0.2 μl of anti-FITC antibody (Abcam, 1 mg/ml) respectively, and incubated with 30 μl of protein G agarose (Roche) in 400 μl binding buffer (pH 8.0, 20 mM Tris-HCl, 150 mM NaCl, 0.3% NP40, 10% glycerol). After successive washes, HA-EED (final concentration of 40 nM each tube) was added and incubated for 3 h, followed by detection of HA-EED bound to FITC-SAH-EZH2 peptides by anti-HA (Santa Cruz Biotechnology) western analysis. Detection of FITC-SAH-EZH2 peptides was accomplished by fluorescence scan (GE Healthcare Life Sciences, Typhoon 9200).

EED [1] = target: T2, EED (Homo sapiens, UniProt O75530); test: Fluorescence polarization binding of FITC-labeled SAH-EZH2 peptides to EED; settings: FITC-peptide 25 nM; His-EED 25 nM-8 μM
T2 construct: His (C); made in house; host or cells: Escherichia coli BL21(DE3)
Protocol: SAH-EZH2/EED Binding Analyses: For fluorescence polarization binding analysis, C-terminal His-tagged EED (His-EED) was expressed in Escherichia coli BL21(DE3) using 0.3 mM IPTG for 6 h at room temperature. Bacterial pellet lysate was loaded onto a Ni-NTA column (Novagen) for purification of His-EED. Fluorescinated stapled peptides (final concentration, 25 nM) were incubated with His-EED (serial dilution range, 25 nM-8 μM) at room temperature until equilibrium was reached (˜15 min) Binding activity was measured by fluorescence polarization on a Perkin-Elmer LS50B luminescence 5 spectrophotometer. KD values were determined by following equation,
as §2

LNCaP cells = test: Viability of androgen-dependent LNCaP cells, Cell Titer Glo; type: cell-based; settings: every other day
Protocol: (§3) To test the anti-proliferative effect of SAH-EZH2(42-68)AC, breast (MDA-MB231) and prostate (DU145) cancer cell lines were treated with SAH-EZH2(42-68)AC at the indicated doses for 8 days and measured for viability by Cell Titer Glo®SAH-EZH2(42-68)AC was added to the culture medium once every other day. […] We further tested the anti-proliferative effects of SAH-EZH2(42-68)AC on a Ewing Sarcoma cell line (TC71) and neuroblastoma cell line (Kelly). The cells were treated with SAH-EZH2(42-68)AC at the indicated doses for 6 days on an every other day schedule and then measured for viability using Cell Titer Glo®. […] To test the anti-proliferative effect on chronic myelogenous leukemia, SAH-EZH2(42-68)AC was added to K562 cells at 10 μM every other day and viability was measured at days 2, 4, 6, and 10 using Cell Titer Glo®. […] To assess the anti-proliferative effects of SAH-EZH2(42-68)AC on androgen-dependent and advanced androgen-independent prostate cancer, SAH-EZH2(42-68)AC was added to cell culture every other day at the indicated doses and viability measured using Cell Titer Glo®.

22Rv1 = test: Viability of androgen independent prostate cancer cells 22Rv1, Cell Titer Glo; type: cell-based; settings: 22Rv1, every other day; read-out: IC50 for growth
Protocol: as §3

TC71 = test: Viability of Ewing Sarcoma cell line TC71, Cell Titer Glo; type: cell-based; settings: 6 days, every other day
Protocol: as §3

Kelly = test: Viability of neuroblastoma cell line Kelly, Cell Titer Glo; type: cell-based; settings: 6 days, every other day
Protocol: as §3

K562 cells = test: Viability of K562 chronic myelogenous leukemia cells, Cell Titer Glo; type: cell-based; settings: 10 μM every other day; days 2, 4, 6 and 10
Protocol: as §3

[2] = tested on: MDA-MB231 breast cancer cells; test: Viability of MDA-MB231 breast cancer cells; type: cell-based; settings: 8 days, once every other day
Text: (§4) To compare the functional and mechanism-based cellular activities of SAH-EZH2 and GSK126, a small molecule inhibitor of EZH2 enzymatic activity (McCabe et al. Nature, 492: 108-112, 2012), we conducted viability assays on the EZH2-dependent cell line MLL-AF9 and the EZH2-independent (non-leukemic) cell line 32D. […] We next compared the effects of SAH-EZH2 and GSK126 on lineage specific surface marker expression in MLL-AF9 cells. […] Given the distinct mechanisms of action of SAH-EZH2 and GSK126, we explored whether co-administration of the two compounds would enhance the anti-leukemic effects. […]
(§5) To test the anti-proliferative effect of SAH-EZH2(42-68)AC, breast (MDA-MB231) and prostate (DU145) cancer cell lines were treated with SAH-EZH2(42-68)AC at the indicated doses for 8 days and measured for viability by Cell Titer Glo®SAH-EZH2(42-68)AC was added to the culture medium once every other day. […] The cells were treated with SAH-EZH2(42-68)AC at the indicated doses for 6 days on an every other day schedule and then measured for viability using Cell Titer Glo®. […] To test the anti-proliferative effect on chronic myelogenous leukemia, SAH-EZH2(42-68)AC was added to K562 cells at 10 μM every other day and viability was measured at days 2, 4, 6, and 10 using Cell Titer Glo®. […]

[3] = tested on: DU145 prostate cancer cells; test: Viability of DU145 prostate cancer cells; type: cell-based; settings: 8 days, once every other day
Text: as §4, §5

Abl = test: Viability of androgen independent prostate cancer cells Abl, Cell Titer Glo; type: cell-based; settings: every other day, read-out: IC50 for growth
Protocol: as §3

EED [4] = target: T2, EED; test: Competitive fluorescence polarization: displacement of FITC-labeled EZH2(42-68) peptide from EED; type: binding; settings: N-terminal acetylated peptides; EED 200 nM, FITC-peptide 20 nM, 30 min
Protocol: The EED binding affinities of SAH-EZH2 and SAH-EZH2(42-68)AC were assessed by their capacities to displace FITC-labeled EZH2(42-68) peptide from EED. Serially diluted acetyl-SAH-EZH2 and the doubly stapled acetyl-SAH-EZH2(42-68)AC (dose range from 2.5 nM to 10 μIM) were incubated with purified EED (200 nM) and FITC-labeled EZH2(42-68) peptide (20 nM) for 30 min, followed by measurement of fluorescence polarization. […] The non-binding EZH2(47-64) construct was used as a negative control.

T2 sequence (O75530 whole entry, species assumed): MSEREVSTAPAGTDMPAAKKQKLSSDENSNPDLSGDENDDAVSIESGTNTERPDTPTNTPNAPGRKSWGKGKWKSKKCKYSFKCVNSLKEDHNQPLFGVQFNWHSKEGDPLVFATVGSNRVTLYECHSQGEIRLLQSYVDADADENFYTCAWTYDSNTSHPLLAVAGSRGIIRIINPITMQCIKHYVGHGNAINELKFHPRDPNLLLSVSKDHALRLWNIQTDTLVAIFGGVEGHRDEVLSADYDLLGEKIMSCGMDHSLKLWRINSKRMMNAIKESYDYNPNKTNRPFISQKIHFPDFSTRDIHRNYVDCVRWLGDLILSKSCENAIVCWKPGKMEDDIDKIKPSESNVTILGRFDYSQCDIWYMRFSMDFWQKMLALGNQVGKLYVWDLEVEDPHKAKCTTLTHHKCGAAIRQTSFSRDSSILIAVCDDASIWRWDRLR
T1 sequence (O75530 whole entry): as the sequence (O75530 whole entry, species assumed) above

Compound: CC[C@H](C)n1cc(C)c2c(C(=O)NCc3c(C)cc(C)[nH]c3=O)cc(-c3ccc(N4CCNCC4)nc3)cc21 [GSK126]
- Viability of MLL-AF9 cells (MLL-AF9): decreased the viability
- Expression of CD133 (CD133): decreased the expression
- Viability of 32D cells (32D): decreased the viability
- Expression of macrophage lineage-specific markers (Ace1, Adam8 and Fcer1a): increase expression of Fcerla

Compound: CC[C@@]1(O)C(=O)OCc2c1cc1n(c2=O)Cc2cc3ccccc3nc2-1 [camptothecin]
- Apoptotic effect (MLL-AF9 leukemia cells): robust apoptotic effect

Compound: QKILERTEILNQEWKQRR (SEQ ID NO: 11) [EZH2(47-64), reference compound]
- Displacement of FITC-labeled EZH2(42-68) peptide from EED (EED [4]): non-binding

Compound: SAH-EZH2B(40-68): stapled EZH2(40-68) peptide with the B-positioned staple; probably position 'C' (54-58) of FIG. 2, SEQ ID NO: 5 (S[Nle]FSSNRQKILERT[S5]ILN[S5]EWKQRRIQPV; staple 15-19)
- EED-binding activity by fluorescence polarization (EED [1]): most potent dose-responsive EED-binding activities

Compound: SAH-EZH2B(42-64): foreshortened stapled EZH2(42-64) peptide with the B-positioned staple; probably position 'C' of FIG. 2, SEQ ID NO: 20 (FSSNRQKILERT[S5]ILN[S5]EWKQRR; staple 13-17)
- Engagement of HA-EED by anti-FITC pull down (HA-EED): no appreciable engagement
- EED-binding activity by fluorescence polarization (EED [1]): no appreciable engagement

Compound: SBFSSNRXKILXRTEILNQEWKQRRIQPV (SEQ ID NO: 3) (S[Nle]FSSNR[S5]KIL[S5]RTEILNQEWKQRRIQPV; staple 8-12) [SAH-EZH2A(40-68)]
- EED-binding activity by fluorescence polarization (EED [1]): most potent dose-responsive EED-binding activities

Second part, led by results:

- Engagement of HA-EED by anti-FITC pull down (HA-EED): no appreciable engagement
- EED-binding activity by fluorescence polarization (EED [1]): no appreciable engagement
Compound: FSSNRXKILXRTEILNQEWKQRR (SEQ ID NO: 19) (FSSNR[S5]KIL[S5]RTEILNQEWKQRR; staple 6-10) [SAH-EZH2A(42-64)]

- IC50 (22Rv1): < 1000 nM
- IC50 (Abl): < 1000 nM
- Displacement of FITC-labeled EZH2(42-68) peptide from EED (EED [4]): two times more efficiently than SAH-EZH2
Compound: FSSNRXKILXRTXILNXEWKQRRIQPV (SEQ ID NO:56) (FSSNR[S5]KIL[S5]RT[S5]ILN[S5]EWKQRRIQPV; staple 6-10, 13-17) [SAH-EZH2(42-68)AC]
- Anti-proliferative activity on LNCaP (LNCaP cells): anti-proliferative activity in each case
- Anti-proliferative effect on TC71 (TC71): noticeable anti-proliferative effects
- Anti-proliferative effect on Kelly (Kelly): noticeable anti-proliferative effects
- Proliferation of K562 cells (K562 cells): decreased proliferation of K562 cells in a dose-responsive manner
- Anti-proliferative effect on MDA-MB231 [2]: enhanced dose-dependent anti-proliferative effects compared to SAH-EZH2 treatment
- Anti-proliferative effect on DU145 [3]: enhanced dose-dependent anti-proliferative effects compared to SAH-EZH2 treatment
